We go through 45 compounds from patent US20250214993A1, “AROMATIC RING COMPOUND AND USE THEREOF” (SHANGHAI SHIJIANG BIOTECHNOLOGY CO., LTD, priority 2022, published 2025).

Holding throughout (assay type): cell-based
One assay deals with Con-NCI-H82 cell. In words: Cell viability (Promega CellTiter-Glo, intracellular ATP), IC50 on Con-NCI-H82 cell. The following applies: Homo sapiens; normal untreated NCI-H82 cell (control). An excerpt: (§1) The expression of NNMT protein in NCI-H82 cell was overexpressed by inserting the NNMT gene into NCI-H82 cell using a viral vector, and the NNMT protein-overexpressing NCI-H82 cell (ov-NNMT NCI-H82 cell) was obtained. The normal and untreated NCI-H82 cell (Con-NCI-H82 cell) was used as control. The expressing content of NNMT protein in the ov-NNMT NCI-H82 cell and Con-NCI-H82 cell was detected using Western Blot assay (as shown in FIG. 1), it could be seen from FIG. 1 that the NNMT protein was overexpressed in the ov-NNMT NCI-H82 cell compared with the expression level of NNMT protein in the Con-NCI-H82 cell.
(§2) The cell viability was detected using the Promega CellTiter-Glo kit which reflected cell viability by measuring intracellular ATP content. The Con-NCI-H82 cell and ov-NNMT NCI-H82 cell was cultured in 10% fetal bovine serum-containing RPMI1640 medium (+P/S).

The next assay concerns mPTP-active Daoy cell. In words: Cell viability (Promega CellTiter-Glo), IC50 on mPTP-active Daoy cell. The following applies: Homo sapiens; Daoy cell transfected with empty virus vector.
The test system of a further assay is ov-NNMT NCI-H82 cell. The assay can be described thus: Cell viability (Promega CellTiter-Glo, intracellular ATP), IC50 on NNMT-overexpressing NCI-H82 cell. The following applies: Homo sapiens; NCI-H82 cell overexpressing NNMT protein.
Excerpt: as §1, §2

A further assay has as its system mPTP-inactive Daoy cell. In words: Cell viability (Promega CellTiter-Glo), IC50 on mPTP-inactive Daoy cell (PPIF shRNA). The following applies: Homo sapiens; Daoy cell transfected with PPIF shRNA vector.

As for `Cn1cc(Cc2ccccc2)c2cc[n+](C3CCc4ccc(C(F)(F)F)cc4C3=O)cc21` (stereo not drawn) [AB27338], the IC50 in the assay on Con-NCI-H82 cell stood at 391 nM; with mPTP-active Daoy cell, 6620 nM; with ov-NNMT NCI-H82 cell, 2360 nM; with mPTP-inactive Daoy cell, 2090 nM.
For the compound `Cc1cn(Cc2ccccc2)c2cc[n+](C3CCc4ccc(F)cc4C3=O)cc12` (stereo not drawn) [AB27470], the 50% inhibitory concentration (IC50) with Con-NCI-H82 cell came out at 112 nM; in the assay with mPTP-active Daoy cell, 3230 nM; in the assay with ov-NNMT NCI-H82 cell it was 2430 nM; in the assay with mPTP-inactive Daoy cell, 930 nM.
On the same counts, the results for `O=C1c2cc(C(F)(F)F)ccc2CCC1n1ccc2c[n+](Cc3ccccc3)ccc21` (stereo not drawn) [AB27190] are 13 nM, 130 nM, 182 nM and 40 nM.
Turning to `O=C1c2cc(OC(F)(F)F)ccc2CCC1[n+]1ccc2c(c1)CCC(c1ccccc1)N2` (stereo not drawn) [AB27132], the IC50 in the assay on Con-NCI-H82 cell came out at 917 nM; with mPTP-active Daoy cell, 7950 nM; in the assay with ov-NNMT NCI-H82 cell, 4870 nM; in the assay with mPTP-inactive Daoy cell it was 3270 nM.
For `O=C(Cn1c(Cl)cc2c[n+](Cc3ccccc3)ccc21)c1cccc(OC(F)(F)F)c1` [AB27486], the IC50 in the assay with Con-NCI-H82 cell worked out at 34 nM; with mPTP-active Daoy cell, 580 nM; in the assay with ov-NNMT NCI-H82 cell, 489 nM; in the assay with mPTP-inactive Daoy cell, 280 nM.
On the same counts, the results for `Cc1ccc2c(c1)CCC(n1ccc3c[n+](C(C)c4ccccc4)ccc31)C2` (stereo not drawn) [AB27181] are 17 nM, 190 nM, 245 nM and 70 nM.
In the same order, the values of `O=C(Cn1c(Br)cc2c[n+](Cc3ccccc3)ccc21)c1cccc(OC(F)(F)F)c1` [AB27489] are 23 nM, 370 nM, 287 nM and 170 nM.
In the same order, the values of `CC(=O)N(Cc1ccccc1)c1cc[n+](CC(=O)c2ccc(C)cc2)c(C)c1` [AB27222] are 56 nM, 1750 nM, 857 nM and 660 nM.
As to `Cc1cn(CC(=O)c2ccc(C(F)(F)F)cc2)c2cc[n+](Cc3ccccc3)cc12` [AB27463], the IC50 was 2060 nM in the assay on Con-NCI-H82 cell, 10600 nM in the assay on mPTP-active Daoy cell, 10600 nM in the assay on ov-NNMT NCI-H82 cell and 4760 nM with mPTP-inactive Daoy cell.
On to `O=C1c2cc(Cl)ccc2CCC1n1ncc2c[n+](Cc3ccccc3)ccc21` (stereo not drawn) [AB27500], for which the half-maximal inhibitory concentration (IC50) in the assay with Con-NCI-H82 cell came to 122 nM; with mPTP-active Daoy cell it was 3180 nM; in the assay with ov-NNMT NCI-H82 cell, 904 nM; in the assay on mPTP-inactive Daoy cell, 620 nM.
As for `O=C1c2cc(OC(F)(F)F)ccc2CCC1n1ncc2c[n+](Cc3ccccc3)ccc21` (stereo not drawn) [AB31775], the half-inhibitory concentration (IC50) in the assay with Con-NCI-H82 cell stood at 124 nM; in the assay with mPTP-active Daoy cell it was 5380 nM; in the assay on ov-NNMT NCI-H82 cell, 2090 nM; in the assay with mPTP-inactive Daoy cell, 1390 nM.
On the same counts, the results for `Cc1cn(CC(=O)c2cccc(OC(F)(F)F)c2)c2cc[n+](Cc3ccccc3)cc12` [AB27457] are 417 nM, 8610 nM, 6610 nM and 2160 nM.
As to `Cc1c(Cl)c2c[n+](Cc3ccccc3)ccc2n1CC(=O)c1cccc(OC(F)(F)F)c1` [AB27483], the IC50 in the assay on Con-NCI-H82 cell turned out to be 1160 nM; in the assay with mPTP-active Daoy cell, 8240 nM; in the assay on ov-NNMT NCI-H82 cell, 7240 nM; in the assay on mPTP-inactive Daoy cell, 2080 nM.
In the same order, the values of `Cc1cn(C2CCc3ccc(F)cc3C2=O)c2cc[n+](C(C)c3ccccc3)cc12` (stereo not drawn) [AB27459] are 86 nM, 2430 nM, 1240 nM and 840 nM.
In the same order, the values of `O=C1c2cc(Cl)ccc2CCC1[n+]1ccc2cn(-c3ccccc3)cc2c1` (stereo not drawn) [AB27196] are 577 nM, 6570 nM, 5510 nM and 2080 nM.
In the same order, the values of `O=C1c2sccc2CCC1[n+]1ccc2c(ccn2Cc2ccccc2)c1` (stereo not drawn) [AB27200] are 1120 nM, 6030 nM, 5680 nM and 2150 nM.
Turning to `CCCCn1ccc2c[n+](C3CCc4ccc(Cl)cc4C3=O)ccc21` (stereo not drawn) [AB27251], the IC50 in the assay with Con-NCI-H82 cell came to 482 nM; in the assay with mPTP-active Daoy cell, 7890 nM; in the assay on ov-NNMT NCI-H82 cell, 2680 nM; with mPTP-inactive Daoy cell, 1960 nM.
On the same counts, the results for `Nc1cc[n+](CC(=O)c2ccc(OC(F)(F)F)cc2)cc1` [AB36528] are 19500 nM, 15700 nM, 19000 nM and 17900 nM.
Regarding `Cc1ccc2c(c1)CCC(n1ccc3c[n+](Cc4ccccc4)ccc31)C2=O` (stereo not drawn) [AB27193], the IC50 in the assay with Con-NCI-H82 cell was determined as 9 nM; in the assay with mPTP-active Daoy cell it was 170 nM; in the assay with ov-NNMT NCI-H82 cell, 154 nM; with mPTP-inactive Daoy cell, 30 nM.
Turning to `Cc1cn(Cc2ccccc2)c2cc[n+](C3CCc4ccc(OC(F)(F)F)cc4C3=O)cc12` (stereo not drawn) [AB27175], the IC50 in the assay with Con-NCI-H82 cell worked out at 226 nM; in the assay with mPTP-active Daoy cell it was 3860 nM; with ov-NNMT NCI-H82 cell, 2860 nM; with mPTP-inactive Daoy cell, 1230 nM.
In the same order, the values of `Cc1ccc(C(=O)C[n+]2ccc(N3CCCCC3)cc2)cc1` [AB27309] are 837 nM, 8580 nM, 4860 nM and 3370 nM.
In the case of `Cc1ccc2c(c1)C(=O)C(n1ncc3c[n+](Cc4ccccc4)ccc31)CC2` (stereo not drawn) [AB31776], the IC50 was 146 nM in the assay with Con-NCI-H82 cell and 2550 nM with ov-NNMT NCI-H82 cell.
In the same order, the values of `O=C(Cn1ccc2c[n+](Cc3ccccc3)ccc21)c1ccc(OC(F)(F)F)cc1` [AB27265] are 123 nM and 864 nM.
On the same counts, the results for `O=C1c2ccc(OC(F)(F)F)cc2CCC1[n+]1ccc2cn(Cc3ccccc3)cc2c1` (stereo not drawn) [AB27295] are 717 nM and 8480 nM.
On the same counts, the results for `Cc1ccc(C(=O)C[n+]2ccc3c(c2)CCN3c2ccccc2)cc1` [AB24994] are 810 nM and 2990 nM.
As for `Cc1ccc(C(=O)C[n+]2ccc(NCc3ccc(C)nc3)cc2C)cc1` [AB27330], the IC50 in the assay with Con-NCI-H82 cell was found to be 5110 nM; in the assay with ov-NNMT NCI-H82 cell, 13500 nM.
In the same order, the values of `O=C(Cn1cc(Cl)c2c[n+](Cc3ccccc3)ccc21)c1cccc(Cl)c1` [AB27269] are 233 nM and 2180 nM.
Take `O=C1c2ccc(C(F)(F)F)cc2CCC1[n+]1ccc(NCc2ccccc2)cc1` (stereo not drawn) [AB27110]: the IC50 in the assay with Con-NCI-H82 cell turned out to be 996 nM; in the assay with ov-NNMT NCI-H82 cell, 5040 nM.
On the same counts, the results for `O=C(Cn1ccc2c[n+](Cc3ccccc3)ccc21)c1ccc(C(F)(F)F)cc1` [AB27264] are 267 nM and 2220 nM.
On to `Cc1ccc(C(=O)C[n+]2ccc3c(Cc4ccccc4)cn(C)c3c2)cc1` [AB27341], for which the IC50 turned out to be 3590 nM with Con-NCI-H82 cell and 10500 nM in the assay on ov-NNMT NCI-H82 cell.
On the same counts, the results for `Cc1ccc(C[n+]2ccc3c(ccn3C3CCc4ccc(Cl)cc4C3=O)c2)cc1` (stereo not drawn) [AB27240] are 15 nM and 285 nM.
For the compound `Cc1cn(C2CCc3ccc(OC(F)(F)F)cc3C2=O)c2cc[n+](Cc3ccccc3)cc12` (stereo not drawn) [AB27465], the IC50 was determined as 160 nM in the assay with Con-NCI-H82 cell and 1030 nM with ov-NNMT NCI-H82 cell.
On the same counts, the results for `Cc1cn(C2CCc3ccc(C(F)(F)F)cc3C2=O)c2cc[n+](C(C)c3ccccc3)cc12` (stereo not drawn) [AB27468] are 571 nM and 6030 nM.
`O=C1c2cc(F)ccc2CCC1[n+]1ccc2cn(Cc3ccccc3)cc2c1` (stereo not drawn) [AB27477]: the IC50 was found to be 164 nM in the assay on Con-NCI-H82 cell and 1980 nM in the assay on ov-NNMT NCI-H82 cell.
As for `O=C1c2sc(Cl)nc2CCC1[n+]1ccc2c(ccn2Cc2ccccc2)c1` (stereo not drawn) [AB27254], the half-maximal inhibitory concentration (IC50) turned out to be 3590 nM in the assay on Con-NCI-H82 cell and 12700 nM in the assay on ov-NNMT NCI-H82 cell.
As for `O=C1c2occc2CCC1[n+]1ccc2c(ccn2Cc2ccccc2)c1` (stereo not drawn) [AB27206], the IC50 in the assay on Con-NCI-H82 cell came to 2540 nM; in the assay with ov-NNMT NCI-H82 cell, 7620 nM.
For `O=C1c2cc(Cl)ccc2CCC1[n+]1ccc2c(ccn2CC2CC2)c1` (stereo not drawn) [AB27252], the IC50 was 968 nM in the assay with Con-NCI-H82 cell and 3690 nM in the assay with ov-NNMT NCI-H82 cell.
In the same order, the values of `O=C1c2cc(Cl)ccc2CCC1[n+]1ccc2c(ccn2S(=O)(=O)c2ccccc2)c1` (stereo not drawn) [AB27215] are 1610 nM and 10800 nM.
In the same order, the values of `O=C1c2cc(OC(F)(F)F)ccc2CCC1[n+]1ccc2cn(Cc3ccccc3)cc2c1` (stereo not drawn) [AB27289] are 285 nM and 2050 nM.
As for `O=C1c2cc(OC(F)(F)F)ccc2CCC1[n+]1ccc2c(ccn2CC2CC2)c1` (stereo not drawn) [AB27247], the IC50 was 403 nM in the assay on Con-NCI-H82 cell and 1650 nM in the assay with ov-NNMT NCI-H82 cell.
Regarding `Cc1cc(NCc2ccccc2)cc[n+]1CC(=O)c1ccc(OC(F)(F)F)cc1` [AB27274], the half-inhibitory concentration (IC50) with Con-NCI-H82 cell was 664 nM; in the assay with ov-NNMT NCI-H82 cell it was 4530 nM.
As for `O=C(C[n+]1ccc2c(c1)CCC(c1ccccc1)N2)c1cccc(C(F)(F)F)c1` (stereo not drawn) [AB27146], the IC50 stood at 1710 nM in the assay with Con-NCI-H82 cell and 6790 nM in the assay with ov-NNMT NCI-H82 cell.
In the same order, the values of `O=C(Cn1ccc2c[n+](Cc3ccccc3)ccc21)c1cccc(OC(F)(F)F)c1` [AB27263] are 32 nM and 322 nM.
For the compound `Cc1ccc(C(=O)CN(CC(=O)c2ccc(C)cc2)c2cc[n+](Cc3ccccc3)cc2)cc1` [AB27299], the IC50 in the assay on Con-NCI-H82 cell amounted to 674 nM; in the assay on ov-NNMT NCI-H82 cell it was 1840 nM.
With `CCCC(=O)N(Cc1ccccc1)c1cc[n+](CC(=O)c2ccc(C)cc2)cc1` [AB27234], the IC50 in the assay with Con-NCI-H82 cell is 1270 nM; in the assay with ov-NNMT NCI-H82 cell, 6960 nM.
